{
  "source": "ChEMBL document CHEMBL5126611",
  "about": "“Design, Synthesis, and Biological Evaluations of Pyridyl 4,5,6,7-Tetrahydro-4,7-Methanobenzo[d]isoxazoles as Potent and Selective Inhibitors of 11β-Hydroxylase” (J Med Chem, 2022)",
  "key": {"[1]": {"assay": "Aqueous solubility of compound", "format": "physicochemical", "conditions": "buffer"}, "[2]": {"assay": "Reduction of cortisol elevation in Sprague-Dawley rat at 25 mg/kg, po measured after 4 hrs by liquid chromatography-tandem mass spectrometry analysis (reference value: 376+/- 22 ng/L)", "format": "functional"}, "[3]": {"assay": "Tmax in Sprague-Dawley rat at 25 mg/kg, po measured up to 24 hrs by LC-MS analysis", "format": "ADME, organism-based", "conditions": "in vivo"}, "[4]": {"assay": "Cmax in Sprague-Dawley rat at 25 mg/kg, po measured up to 24 hrs by LC-MS analysis", "format": "ADME, organism-based", "parameters": "dose 25 mg/kg, time < 24 hrs, route po", "conditions": "in vivo"}, "[5]": {"assay": "Selectivity ratio of IC50 for inhibition of rat CYP11B2 to IC50 for inhibition of rat CYP11B1", "format": "ADME"}, "[6]": {"assay": "Bioavailability in Sprague-Dawley rat at 5 mg/kg, iv measured up to 24 hrs by LC-MS analysis", "format": "ADME, organism-based", "conditions": "in vivo"}, "[7]": {"biological_target": "T1, Cytochrome P450 11B2, mitochondrial (Homo sapiens, UniProt P19099)", "T1 sequence (P19099 whole entry)": "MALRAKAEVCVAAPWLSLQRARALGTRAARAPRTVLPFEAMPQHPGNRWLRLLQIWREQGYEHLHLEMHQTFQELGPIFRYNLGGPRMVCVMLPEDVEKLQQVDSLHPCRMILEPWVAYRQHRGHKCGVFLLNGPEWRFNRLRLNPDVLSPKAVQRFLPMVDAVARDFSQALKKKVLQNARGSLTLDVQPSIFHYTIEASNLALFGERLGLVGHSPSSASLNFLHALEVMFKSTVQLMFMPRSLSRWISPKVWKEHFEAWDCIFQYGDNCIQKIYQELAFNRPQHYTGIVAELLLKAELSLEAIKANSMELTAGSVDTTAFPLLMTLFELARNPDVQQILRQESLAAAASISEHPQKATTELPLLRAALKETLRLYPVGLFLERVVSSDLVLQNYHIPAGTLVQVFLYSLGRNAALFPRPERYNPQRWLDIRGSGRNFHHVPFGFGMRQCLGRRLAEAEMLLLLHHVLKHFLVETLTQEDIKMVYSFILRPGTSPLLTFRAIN", "assay": "Inhibition of human CYP11B2 expressed in Chinese hamster V79 MZh cells using [14C]-deoxycorticosteron as substrate measured after 6 hrs by phosphoimager analysis", "format": "ADME, cell-based"}, "[8]": {"assay": "Selectivity ratio of IC50 for inhibition of human CYP11B2 to IC50 for inhibition of human CYP11B1", "format": "ADME"}, "[9]": {"biological_target": "T2, Cytochrome P450 11B1, mitochondrial (Rattus norvegicus, UniProt P15393)", "T2 sequence (P15393 whole entry)": "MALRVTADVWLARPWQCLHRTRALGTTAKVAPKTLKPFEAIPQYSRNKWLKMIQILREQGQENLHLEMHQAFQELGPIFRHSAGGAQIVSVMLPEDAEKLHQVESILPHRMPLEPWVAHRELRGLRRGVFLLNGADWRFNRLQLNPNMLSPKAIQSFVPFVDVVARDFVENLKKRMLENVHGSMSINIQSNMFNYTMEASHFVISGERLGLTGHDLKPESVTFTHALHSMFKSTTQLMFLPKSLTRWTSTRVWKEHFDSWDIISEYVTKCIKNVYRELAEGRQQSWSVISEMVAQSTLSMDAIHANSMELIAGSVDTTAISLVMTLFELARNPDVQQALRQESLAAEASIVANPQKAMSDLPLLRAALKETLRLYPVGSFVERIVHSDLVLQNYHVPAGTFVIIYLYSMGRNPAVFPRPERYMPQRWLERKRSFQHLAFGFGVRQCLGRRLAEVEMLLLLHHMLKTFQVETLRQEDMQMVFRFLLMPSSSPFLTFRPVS", "assay": "Inhibition of rat CYP11B1", "format": "ADME"}, "[10]": {"assay": "AUC (0 to infinity) in Sprague-Dawley rat at 5 mg/kg, iv measured up to 24 hrs by LC-MS analysis", "format": "ADME, organism-based", "parameters": "time < 24 hrs, dose 5 mg/kg, route iv", "conditions": "in vivo"}, "[11]": {"assay": "AUC (0 to infinity) in Sprague-Dawley rat at 25 mg/kg, po measured up to 24 hrs by LC-MS analysis", "format": "ADME, organism-based", "parameters": "dose 25 mg/kg, time < 24 hrs, route po", "conditions": "in vivo"}, "Cytochrome P450 2D6": {"biological_target": "Cytochrome P450 2D6 (Homo sapiens, UniProt P10635)", "sequence (P10635 whole entry)": "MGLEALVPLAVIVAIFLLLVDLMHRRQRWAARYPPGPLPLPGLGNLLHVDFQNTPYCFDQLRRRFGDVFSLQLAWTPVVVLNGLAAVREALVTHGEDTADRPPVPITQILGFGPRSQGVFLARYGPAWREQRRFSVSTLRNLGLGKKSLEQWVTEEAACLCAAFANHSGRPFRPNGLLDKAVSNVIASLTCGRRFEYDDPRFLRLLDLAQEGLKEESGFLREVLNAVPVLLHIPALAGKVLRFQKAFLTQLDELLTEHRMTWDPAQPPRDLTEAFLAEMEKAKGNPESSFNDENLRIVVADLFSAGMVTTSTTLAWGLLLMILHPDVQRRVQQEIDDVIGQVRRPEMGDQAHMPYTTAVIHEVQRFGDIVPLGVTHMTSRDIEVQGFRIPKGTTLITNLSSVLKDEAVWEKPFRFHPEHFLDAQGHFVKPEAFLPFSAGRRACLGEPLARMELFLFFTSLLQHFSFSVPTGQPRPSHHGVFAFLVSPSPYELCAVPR", "assay": "Inhibition of human hepatic recombinant CYP2D6 using cocktail of substrate by LC-MS/MS analysis", "format": "ADME"}, "[12]": {"assay": "Cmax in Sprague-Dawley rat at 5 mg/kg, iv measured up to 24 hrs by LC-MS analysis", "format": "ADME, organism-based", "parameters": "dose 5 mg/kg, time < 24 hrs, route iv", "conditions": "in vivo"}},
  "note": "pIC50: −log10 of the molar value.",
  "data": [
    {"smiles": "O=C(Nc1ccc2[nH]ncc2c1)[C@]12ON=C(c3cccnc3)[C@H]1[C@@H]1CC[C@H]2C1", "values": [
      {"measurement": "solubility", "setting": "[1]", "result": 196, "unit": "µM"},
      {"measurement": "Activity", "setting": "[2]", "result": 28, "unit": "ng/L"},
      {"measurement": "Tmax", "setting": "[3]", "result": 4.2, "unit": "h"},
      {"measurement": "Cmax", "setting": "[4]", "result": 7990, "unit": "ng/mL"},
      {"measurement": "Ratio IC50", "setting": "[5]", "result": 81},
      {"measurement": "bioavailability", "setting": "[6]", "result": 21.4, "unit": "%"},
      {"measurement": "pIC50", "setting": "[7]", "result": 5.95},
      {"measurement": "Ratio IC50", "setting": "[8]", "result": 125},
      {"measurement": "pIC50", "setting": "[9]", "result": 7.60},
      {"measurement": "AUC", "setting": "[10]", "result": 50928.7, "unit": "ng·h/mL"},
      {"measurement": "AUC(0-inf)", "setting": "[11]", "result": 54500, "unit": "ng·h/mL"},
      {"measurement": "pIC50", "setting": "Cytochrome P450 2D6", "result": "< 5.00"},
      {"measurement": "Cmax", "setting": "[12]", "result": 12700, "unit": "ng/mL"}
    ]}
  ]
}
